Key:
[1] = target: T1, DNA (cytosine-5)-methyltransferase 1 (Homo sapiens, UniProt P26358); experiment: Inhibition of DNMT1 (unknown origin) at 5 uM preincubated for 15 mins followed by substrate and [3H-SAM] addition and measured after 60 mins by microbeta analysis relative to control; settings: time 75.0 min
[2] = test system: U-937; experiment: Antiproliferative activity against human U-937 cells assessed as inhibition of cell viability measured after 72 hrs by MTT assay; type: functional, cell-based; settings: U-937, 72 h
[3] = target: T2, DNA (cytosine-5)-methyltransferase 3A (Homo sapiens, UniProt Q9Y6K1); experiment: Inhibition of DNMT3A (unknown origin) at 5 uM preincubated for 15 mins followed by substrate and [3H-SAM] addition and measured after 60 mins by microbeta analysis relative to control; settings: time 75.0 min
[4] = target: T3, DNA (cytosine-5)-methyltransferase 3B (Homo sapiens, UniProt Q9UBC3); experiment: Inhibition of DNMT3B (unknown origin) at 5 uM preincubated for 15 mins followed by substrate and [3H-SAM] addition and measured after 60 mins by microbeta analysis relative to control; settings: time 75.0 min
[5] = test system: MV4-11; experiment: Antiproliferative activity against human MV4-11 cells assessed as inhibition of cell viability measured after 72 hrs by MTT assay; type: functional, cell-based; settings: MV4-11, 72 h
[6] = target: T2, DNA (cytosine-5)-methyltransferase 3A; experiment: Inhibition of DNMT3A (unknown origin) preincubated for 15 mins followed by substrate and [3H-SAM] addition and measured after 60 mins by microbeta analysis
[7] = target: T4, Histone-lysine N-methyltransferase EHMT2 (Homo sapiens) (UniProt Q96KQ7); experiment: Inhibition of G9a (unknown origin) at 5 uM preincubated for 15 mins followed by substrate and [3H-SAM] addition and measured after 60 mins by microbeta analysis relative to control; settings: time 75.0 min
T4 sequence (whole entry): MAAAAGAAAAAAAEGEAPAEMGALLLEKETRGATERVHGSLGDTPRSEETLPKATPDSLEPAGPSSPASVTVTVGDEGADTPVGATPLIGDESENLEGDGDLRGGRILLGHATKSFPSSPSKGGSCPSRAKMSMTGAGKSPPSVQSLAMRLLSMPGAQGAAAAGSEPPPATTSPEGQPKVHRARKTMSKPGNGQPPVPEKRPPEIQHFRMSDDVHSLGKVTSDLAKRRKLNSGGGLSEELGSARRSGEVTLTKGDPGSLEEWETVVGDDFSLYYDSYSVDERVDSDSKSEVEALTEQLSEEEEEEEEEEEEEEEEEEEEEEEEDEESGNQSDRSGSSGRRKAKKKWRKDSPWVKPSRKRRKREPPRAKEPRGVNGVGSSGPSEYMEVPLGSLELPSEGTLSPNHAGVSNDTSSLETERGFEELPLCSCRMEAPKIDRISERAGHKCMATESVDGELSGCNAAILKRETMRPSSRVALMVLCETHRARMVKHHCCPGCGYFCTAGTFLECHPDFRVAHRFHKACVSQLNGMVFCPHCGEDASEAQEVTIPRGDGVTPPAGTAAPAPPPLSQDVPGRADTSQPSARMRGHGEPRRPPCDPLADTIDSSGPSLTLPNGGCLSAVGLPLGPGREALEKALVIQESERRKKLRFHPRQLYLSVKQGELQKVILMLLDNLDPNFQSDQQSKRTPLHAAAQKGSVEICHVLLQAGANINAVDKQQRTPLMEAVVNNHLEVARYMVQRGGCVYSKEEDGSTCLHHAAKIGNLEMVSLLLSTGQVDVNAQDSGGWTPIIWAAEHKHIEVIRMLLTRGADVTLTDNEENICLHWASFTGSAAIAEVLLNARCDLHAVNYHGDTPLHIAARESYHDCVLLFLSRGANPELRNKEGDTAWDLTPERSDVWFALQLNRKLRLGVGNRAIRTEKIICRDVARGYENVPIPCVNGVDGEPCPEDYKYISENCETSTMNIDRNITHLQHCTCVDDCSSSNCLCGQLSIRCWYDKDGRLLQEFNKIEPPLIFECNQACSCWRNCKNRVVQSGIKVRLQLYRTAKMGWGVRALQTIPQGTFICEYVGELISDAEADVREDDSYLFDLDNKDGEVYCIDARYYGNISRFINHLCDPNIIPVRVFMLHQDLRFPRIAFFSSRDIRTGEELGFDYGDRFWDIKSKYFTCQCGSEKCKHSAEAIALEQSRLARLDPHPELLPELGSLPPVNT

[8] = target: T1, DNA (cytosine-5)-methyltransferase 1; experiment: Inhibition of DNMT1 (unknown origin) preincubated for 15 mins followed by substrate and [3H-SAM] addition and measured after 60 mins by microbeta analysis
[9] = target: T3, DNA (cytosine-5)-methyltransferase 3B; experiment: Inhibition of DNMT3B (unknown origin) preincubated for 15 mins followed by substrate and [3H-SAM] addition and measured after 60 mins by microbeta analysis

T1 sequence (P26358 whole entry): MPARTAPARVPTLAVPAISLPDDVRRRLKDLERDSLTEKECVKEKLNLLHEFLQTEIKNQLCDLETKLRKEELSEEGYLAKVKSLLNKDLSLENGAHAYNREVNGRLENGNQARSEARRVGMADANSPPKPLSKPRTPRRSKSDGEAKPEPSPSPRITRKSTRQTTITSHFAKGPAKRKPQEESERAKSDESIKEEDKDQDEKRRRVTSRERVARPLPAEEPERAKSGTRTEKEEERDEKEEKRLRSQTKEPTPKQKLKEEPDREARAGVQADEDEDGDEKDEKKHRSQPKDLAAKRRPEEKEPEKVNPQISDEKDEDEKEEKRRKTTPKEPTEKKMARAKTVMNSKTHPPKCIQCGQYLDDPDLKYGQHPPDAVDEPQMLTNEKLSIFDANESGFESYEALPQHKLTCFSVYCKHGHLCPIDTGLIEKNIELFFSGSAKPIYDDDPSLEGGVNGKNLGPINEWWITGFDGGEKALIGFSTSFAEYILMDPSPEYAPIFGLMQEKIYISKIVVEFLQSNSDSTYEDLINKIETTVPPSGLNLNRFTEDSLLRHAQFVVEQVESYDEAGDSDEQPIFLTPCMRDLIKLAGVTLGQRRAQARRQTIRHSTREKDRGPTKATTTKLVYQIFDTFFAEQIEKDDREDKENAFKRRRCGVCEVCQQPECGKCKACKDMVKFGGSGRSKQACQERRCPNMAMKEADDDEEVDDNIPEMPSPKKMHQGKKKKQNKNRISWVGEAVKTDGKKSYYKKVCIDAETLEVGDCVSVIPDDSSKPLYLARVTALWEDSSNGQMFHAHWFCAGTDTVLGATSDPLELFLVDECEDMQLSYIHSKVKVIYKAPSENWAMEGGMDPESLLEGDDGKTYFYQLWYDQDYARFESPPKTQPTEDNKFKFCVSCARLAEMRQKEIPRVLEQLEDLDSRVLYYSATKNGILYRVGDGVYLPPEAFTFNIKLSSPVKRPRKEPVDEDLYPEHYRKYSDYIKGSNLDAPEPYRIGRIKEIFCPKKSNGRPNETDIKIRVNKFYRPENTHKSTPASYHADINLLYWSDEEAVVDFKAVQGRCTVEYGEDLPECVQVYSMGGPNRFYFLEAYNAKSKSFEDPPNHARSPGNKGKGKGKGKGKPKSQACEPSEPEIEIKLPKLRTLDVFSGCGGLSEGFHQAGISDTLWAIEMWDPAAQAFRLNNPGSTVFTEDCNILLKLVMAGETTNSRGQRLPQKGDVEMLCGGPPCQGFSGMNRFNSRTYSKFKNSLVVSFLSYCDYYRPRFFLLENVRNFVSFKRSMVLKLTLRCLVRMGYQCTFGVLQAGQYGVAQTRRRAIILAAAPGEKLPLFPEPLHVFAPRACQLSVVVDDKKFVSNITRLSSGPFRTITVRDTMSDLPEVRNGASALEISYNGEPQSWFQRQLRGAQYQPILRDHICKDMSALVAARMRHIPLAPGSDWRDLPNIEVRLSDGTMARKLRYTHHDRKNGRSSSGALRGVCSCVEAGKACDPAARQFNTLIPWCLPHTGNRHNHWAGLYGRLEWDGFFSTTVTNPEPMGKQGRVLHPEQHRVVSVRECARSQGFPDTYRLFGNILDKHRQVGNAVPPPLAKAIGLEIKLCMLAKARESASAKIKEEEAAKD
T2 sequence (Q9Y6K1 whole entry, looked up): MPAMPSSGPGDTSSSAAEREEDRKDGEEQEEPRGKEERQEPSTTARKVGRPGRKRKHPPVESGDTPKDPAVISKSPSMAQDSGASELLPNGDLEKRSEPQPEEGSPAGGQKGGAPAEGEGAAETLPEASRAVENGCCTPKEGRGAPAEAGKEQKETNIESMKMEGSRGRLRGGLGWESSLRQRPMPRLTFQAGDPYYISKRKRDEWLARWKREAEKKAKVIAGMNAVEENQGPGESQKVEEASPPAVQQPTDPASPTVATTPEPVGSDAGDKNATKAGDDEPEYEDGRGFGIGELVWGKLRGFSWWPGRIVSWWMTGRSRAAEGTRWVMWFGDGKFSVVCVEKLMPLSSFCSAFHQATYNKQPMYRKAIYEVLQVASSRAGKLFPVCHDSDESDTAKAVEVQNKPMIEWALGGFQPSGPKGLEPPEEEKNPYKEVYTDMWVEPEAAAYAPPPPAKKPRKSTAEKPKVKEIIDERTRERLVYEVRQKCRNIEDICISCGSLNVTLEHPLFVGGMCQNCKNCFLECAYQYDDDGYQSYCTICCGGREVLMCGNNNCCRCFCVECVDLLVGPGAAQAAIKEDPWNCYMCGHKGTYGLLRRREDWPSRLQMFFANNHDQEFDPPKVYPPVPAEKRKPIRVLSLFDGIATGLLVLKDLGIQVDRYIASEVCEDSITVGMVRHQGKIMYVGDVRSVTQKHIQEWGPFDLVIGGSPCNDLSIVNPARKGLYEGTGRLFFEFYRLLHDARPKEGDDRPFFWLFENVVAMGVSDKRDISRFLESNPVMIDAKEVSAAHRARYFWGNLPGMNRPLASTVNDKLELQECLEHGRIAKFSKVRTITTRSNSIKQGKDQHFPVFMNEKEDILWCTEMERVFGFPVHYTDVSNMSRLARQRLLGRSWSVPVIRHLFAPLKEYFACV

SMILES	inhibition [1] [%]	IC50 [2] [µM]	inhibition [3] [%]	inhibition [4] [%]	IC50 [5] [µM]	IC50 [6] [µM]	inhibition [7] [%]	IC50 [8] [µM]	IC50 [9] [µM]
CN1CCC(Nc2nc(-c3cn[nH]c3)nc3c2ccn3CCCN2CCCC2)CC1	35	> 100	7.2	-6.9	> 100	7.13	-2		
CC(C)N1CCC(Nc2nc(-c3ccccc3)nc3c2ncn3CCCN2CCCC2)CC1	7.2	12.4	21	0.7	8.85		6	11.9	
CN1CCC(Nc2nc(N3CCCCC3)nc3c2ccn3CCCN2CCOCC2)CC1	21	41	3.7	-0.3	24		12		
CN1CCC(Nc2nc(N3CCCC3)nc3c2ccn3CCCN2CCCC2)CC1	25	46.3	4.2		11		1.3		
CN1CCC(Nc2nc(-c3ccc(F)cc3)nc3c2ccn3CCCN2CCCC2)CC1	63	2.45	13	-6.6	1.66	4	0.3		18.3
CC(C)(C)OC(=O)N1CCC(CNc2cc(-c3ccc(F)cc3)cc3c2cnn3CCCN2CCCC2)CC1	32	1.07	6.8	9.1	1.21				
CC(C)N1CCC(Nc2nc(N3CCOCC3)nc3c2ccn3CCCN2CCCC2)CC1	6.7	> 100	2.6	-9.7	40.9		-1.4		
CC(C)N1CCC(Nc2nc(N3CCCCC3)nc3c2ccn3CCCN2CCCC2)CC1	13	14.5	0.8	11	12.3		6.5		
CN1CCC(Nc2nc(-c3ccccc3)nc3c2ccn3CCCN2CCCC2)CC1	45	18.2	8.6	6.6	6.68	7.36	1.1		
CN1CCC(Nc2nc(N3CCOCC3)nc3c2ccn3CCCN2CCCC2)CC1	25	> 100	-1.8	15	25.9		7.2		
Cc1ccc(-c2nc(NC3CCN(C(C)C)CC3)c3ncn(CCCN4CCCC4)c3n2)o1	37	55.2	22	2	46.1		2.5	23.8	
CN1CCN(c2cc(NCC3CCN(C(=O)C4CCCC4)CC3)c3cnn(CCCN4CCOCC4)c3c2)CC1					8.67				
CN1CCC(Nc2nc(N3CCCCC3)nc3c2ccn3CCCN2CCCC2)CC1	20	17.7	6.9	-9.7	9.62		1.9		
Cc1ccc(-c2cc(NCC3CCN(Cc4ccccc4)CC3)c3cnn(CCCN4CCCC4)c3c2)o1	61	1.59	25		1		14		
CC(C)N1CCC(Nc2nc(-c3ccc(F)cc3)nc3c2ncn3CCCN2CCCC2)CC1	3.3	12.8	14	11	10.4		-4.9	17.4	
CN1CCC(Nc2nc(N3CCCN(C)CC3)nc3c2ccn3CCCN2CCCC2)CC1	31	43.3			26	6.17	2.9		

SMILES	inhibition [1] [%]	IC50 [2] [µM]	inhibition [3] [%]	inhibition [4] [%]	IC50 [5] [µM]	IC50 [6] [µM]	inhibition [7] [%]	IC50 [8] [µM]	IC50 [9] [µM]
CN1CCC(Nc2nc(-c3ccc(C(F)(F)F)cc3)nc3c2ccn3CCCN2CCCC2)CC1	42	0.98	9.7	1.1	1.16				
Cc1ccc(-c2cc(NCC3CCN(C(=O)OC(C)(C)C)CC3)c3cnn(CCCN4CCCC4)c3c2)o1	1.6	3.21	17	11	1.06		12		
CC(C)N1CCC(Nc2nc(N3CCN(C)CC3)nc3c2ncn3CCCN2CCCC2)CC1	17	14.2	-6.9		8.25				
Cc1ccc(-c2cc(NCC3CCNCC3)c3cnn(CCCN4CCCC4)c3c2)o1	41	8.91	20		2.33		22		
COc1ccc(-c2cc(NCC3CCN(Cc4ccccc4)CC3)c3cnn(CCCN4CCCC4)c3c2)cc1	48	1.02	24	1.2	1.44				
Cc1ccc(-c2nc(NC3CCN(C)CC3)c3ccn(CCCN4CCCC4)c3n2)o1	43	43.6	16.5	-2.5	11.8	7.95	7.2		14.6
CC(C)N1CCC(Nc2nc(N3CCN(C)CC3)nc3c2ccn3CCCN2CCCC2)CC1	20	15.6	6.6	4.3	2.87		3.6		
CN1CCC(Nc2nc(N3CCN(C)CC3)nc3c2ccn3CCCN2CCCC2)CC1	39	30.9	11	11	11.1	2.8	-1.9		
CN1CCC(Nc2nc(-c3ccc(F)nc3)nc3c2ccn3CCCN2CCOCC2)CC1	17	6.84	16	0.2	10.6		11		
Cc1ccc(-c2cc(NC3CCN(C(C)C)CC3)c3cnn(CCCN4CCCC4)c3c2)o1	56	12.2	13	-9.4	11.9		12		
CN1CCN(c2cc(NCC3CCN(C(=O)OC(C)(C)C)CC3)c3cnn(CCCN4CCOCC4)c3c2)CC1	98	23.9	19	31	22.1		10		
CC(C)N1CCC(Nc2nc(-c3cn[nH]c3)nc3c2ncn3CCCN2CCCC2)CC1	49	> 100	8.6	-5.5	> 100		-2.4	55.4	
CN1CCC(Nc2nc(N3CCN(C)CC3)nc3c2ccn3CCCN2CCOCC2)CC1	25	58.6	9.5	16	23.8		12		
CC(C)N1CCC(Nc2nc(N3CCCCC3)nc3c2ncn3CCCN2CCCC2)CC1	12	> 100	4.3	9.9	> 100		7.6		
Cc1ccc(-c2cc(NCC3CCN(C(=O)OCc4ccccc4)CC3)c3cnn(CCCN4CCCC4)c3c2)o1	0.36	6.95	12	53	1.07		9.7	> 30	
